Laboratory results published in patent US20220280661A1, “GLUCOCORTICOID RECEPTOR RADIOLIGANDS AND METHODS FOR THEIR PREPARATION AND USE” (The Regents of the University of California, priority 2019, published 2022).

Target: T1, GR (Mus musculus, UniProt P06537)
T1 construct: from tissue; host or cells: tissues of C57BL6/J mice (intact or adrenalectomized), in vivo
T1 sequence (P06537 1-792): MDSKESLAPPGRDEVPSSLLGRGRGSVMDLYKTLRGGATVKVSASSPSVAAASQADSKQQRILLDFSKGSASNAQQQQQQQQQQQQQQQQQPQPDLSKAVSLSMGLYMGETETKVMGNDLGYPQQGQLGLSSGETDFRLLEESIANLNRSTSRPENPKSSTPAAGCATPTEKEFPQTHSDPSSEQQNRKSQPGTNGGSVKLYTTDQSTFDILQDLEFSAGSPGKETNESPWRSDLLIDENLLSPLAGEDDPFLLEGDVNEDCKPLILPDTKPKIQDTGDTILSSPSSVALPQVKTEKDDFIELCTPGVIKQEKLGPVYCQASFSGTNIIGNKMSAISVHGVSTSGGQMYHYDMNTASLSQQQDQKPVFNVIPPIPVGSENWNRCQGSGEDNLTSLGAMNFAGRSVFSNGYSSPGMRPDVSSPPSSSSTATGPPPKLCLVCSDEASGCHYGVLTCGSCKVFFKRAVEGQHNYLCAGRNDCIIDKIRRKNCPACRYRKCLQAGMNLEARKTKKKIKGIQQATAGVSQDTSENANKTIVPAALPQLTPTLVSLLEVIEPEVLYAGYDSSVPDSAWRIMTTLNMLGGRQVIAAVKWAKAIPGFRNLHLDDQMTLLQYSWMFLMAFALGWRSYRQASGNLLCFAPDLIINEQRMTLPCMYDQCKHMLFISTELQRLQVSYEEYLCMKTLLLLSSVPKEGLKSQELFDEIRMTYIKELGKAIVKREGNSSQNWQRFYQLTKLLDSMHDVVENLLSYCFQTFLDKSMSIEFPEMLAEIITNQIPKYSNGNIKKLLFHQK
Test: 11C radiotracer biodistribution with dexamethasone or Dex-CD blocking
Type: in vivo
Conditions: 20 min after injection
Procedure: Animal Studies. All animal experiments were performed under the approval of the Institutional Animal Care and Use Committee (IACUC) at UCSF. C57BL6/J mice (4-6 weeks) were purchased from Charles River. All the mice were housed in a dedicated vivarium with free access to food and water. […] Adrenalectomized mice were purchased from Charles River and provided drinking water supplemented with NaCl (aq) per instructions until the time of the tracer biodistribution study.
Biodistribution Studies. Mice were euthanized after radiotracer (7.4-18.5 MBq in 100-150 μL) injection with CO2 (g) asphyxiation and dissected at dedicated time points post injection. The blood and tissues were collected, washed, dried, and weighed. The activity of each tissue was measured with a gamma counter. All data was decay corrected. PRISM software was used to express a percentage (% ID/g) of the injected dose per gram of tissue.
The P value indicates the result of an unpaired, two-tailed Student's t test between the respective treatment group and vehicle (n=5/group).
Table 10 summarizes biodistribution data collected 20 minutes after injection of ^11C-YJH02 among two treatment arms receiving vehicle or one intraperitoneal injection of the water-soluble dexamethasone-cyclodextrin complex at 10 mg/kg one hour prior to radiotracer administration. The P value indicates the result of an unpaired, two-tailed Student's t test between the respective treatment group and vehicle (n=5/group).

[1] = mice given Dex-CD 10 mg/kg intraperitoneal one hour prior to radiotracer
[2] = mice given dexamethasone 50 mg/kg via gavage once daily for three days

Compound: CC1=CC(C)(C)Nc2ccc3c(c21)C(Cc1ccc(F)cc1)Oc1cccc(O[11CH3])c1-3 (racemic) [(±)-^11C-YJH08]
- radiotracer uptake, Adrenal [1]: 5.67 ± 2.6 % ID/g
- radiotracer uptake, Blood [1]: 3.72 ± 0.2 % ID/g
- radiotracer uptake, Bone [1]: 1.95 ± 1.6 % ID/g
- radiotracer uptake, Brain [1]: 1.40 ± 0.2 % ID/g
- radiotracer uptake, Brown Fat [1]: 8.68 ± 2.4 % ID/g
- radiotracer uptake, Heart [1]: 5.95 ± 0.7 % ID/g
- radiotracer uptake, Kidney [1]: 4.11 ± 0.4 % ID/g
- radiotracer uptake, Lg. Int. [1]: 1.38 ± 0.3 % ID/g
- radiotracer uptake, Liver [1]: 12.47 ± 0.8 % ID/g
- radiotracer uptake, Lung [1]: 5.09 ± 0.7 % ID/g
- radiotracer uptake, Muscle [1]: 1.16 ± 0.2 % ID/g
- radiotracer uptake, Pancreas [1]: 3.14 ± 0.3 % ID/g
- radiotracer uptake, Sm. Int. [1]: 15.72 ± 3.2 % ID/g
- radiotracer uptake, Spleen [1]: 5.72 ± 0.7 % ID/g
- radiotracer uptake, Stomach [1]: 1.79 ± 0.8 % ID/g
- radiotracer uptake, Adrenal [2]: 9.24 ± 3.6 % ID/g
- radiotracer uptake, Blood [2]: 4.58 ± 1.9 % ID/g
- radiotracer uptake, Bone [2]: 1.06 ± 0.4 % ID/g
- radiotracer uptake, Brain [2]: 1.02 ± 0.3 % ID/g
- radiotracer uptake, Brown Fat [2]: 4.58 ± 2.3 % ID/g
- radiotracer uptake, Heart [2]: 3.86 ± 1.6 % ID/g
- radiotracer uptake, Kidney [2]: 2.96 ± 0.9 % ID/g
- radiotracer uptake, Lg. Int. [2]: 1.01 ± 0.5 % ID/g
- radiotracer uptake, Liver [2]: 5.22 ± 2.7 % ID/g
- radiotracer uptake, Lung [2]: 3.39 ± 1.6 % ID/g
- radiotracer uptake, Muscle [2]: 0.84 ± 0.4 % ID/g
- radiotracer uptake, Pancreas [2]: 1.52 ± 0.7 % ID/g
- radiotracer uptake, Sm. Int. [2]: 30.24 ± 12.7 % ID/g
- radiotracer uptake, Spleen [2]: 3.71 ± 1.5 % ID/g
- radiotracer uptake, Stomach [2]: 0.71 ± 0.2 % ID/g
- radiotracer uptake, Adrenal (mice given vehicle): 17.63 ± 2.9 % ID/g
- radiotracer uptake, Blood (mice given vehicle): 4.82 ± 0.4 % ID/g
- radiotracer uptake, Bone (mice given vehicle): 1.46 ± 0.5 % ID/g
- radiotracer uptake, Brain (mice given vehicle): 1.98 ± 0.1 % ID/g
- radiotracer uptake, Brown Fat (mice given vehicle): 9.52 ± 0.9 % ID/g
- radiotracer uptake, Heart (mice given vehicle): 7.06 ± 0.8 % ID/g
- radiotracer uptake, Kidney (mice given vehicle): 7.22 ± 0.8 % ID/g
- radiotracer uptake, Lg. Int. (mice given vehicle): 1.70 ± 0.3 % ID/g
- radiotracer uptake, Liver (mice given vehicle): 16.25 ± 0.8 % ID/g
- radiotracer uptake, Lung (mice given vehicle): 6.80 ± 0.7 % ID/g
- radiotracer uptake, Muscle (mice given vehicle): 1.85 ± 0.1 % ID/g
- radiotracer uptake, Pancreas (mice given vehicle): 4.64 ± 0.1 % ID/g
- radiotracer uptake, Sm. Int. (mice given vehicle): 28.72 ± 14.5 % ID/g
- radiotracer uptake, Spleen (mice given vehicle): 7.28 ± 1.8 % ID/g
- radiotracer uptake, Stomach (mice given vehicle): 2.62 ± 1.5 % ID/g
